# Measured values reported in patent US10004701B2, “Methods and compositions for treating infection” (UNIVERSITY OF ROCHESTER, priority 2012, dated 2018).
# Where a name gives a salt, the structure may show the parent alone. Read-outs that look alike come from different tables or passages of the source.
# Experiments:
# Assay in all cases: AK assay 384-well format, Prestwick library screening
# [1] = system: A. baumannii strain 98-37-09; assay type: cell-based, Acinetobacter baumannii; settings: 50 μM final drug concentration; for fold induction at 50 µM: Acinetobacter baumannii, 983709, 3 h
# [2] = system: S. aureus strain USA300-0114; assay type: cell-based, Staphylococcus aureus; settings: 50 μM final drug concentration; for fold induction at 50 µM: Staphylococcus aureus, USA300, 3 h
# K. pneumoniae = assay type: cell-based, Klebsiella pneumoniae; settings: 50 μM final drug concentration; for fold induction at 50 µM: Klebsiella pneumoniae, 3 h
# E. cloacae = assay type: cell-based, Enterobacter cloacae; settings: 50 μM final drug concentration; for fold induction at 50 µM: Enterobacter cloacae, 3 h
# E. coli = assay type: cell-based, Escherichia coli; settings: 50 μM final drug concentration; for fold induction at 50 µM: Escherichia coli, 3 h
# E. faecium = assay type: cell-based, Enterococcus faecium; settings: 50 μM final drug concentration; for fold induction at 50 µM: Enterococcus faecium, 3 h
# P. aeruginosa = assay type: cell-based, Pseudomonas aeruginosa; settings: 50 μM final drug concentration; for fold induction at 50 µM: Pseudomonas aeruginosa, 3 h
# [3] = 384-well format, cutoff for positive-scoring molecules 3-fold increase, read-out: AK-based Prestwick Library Screening Results, A. baumannii (increase in extracellular AK activity)
# [4] = 384-well format, cutoff for positive-scoring molecules 3-fold increase, read-out: AK-based Prestwick Library Screening Results, S. aureus (increase in extracellular AK activity)
# [5] = 384-well format, cutoff for positive-scoring molecules 3-fold increase, read-out: AK-based Prestwick Library Screening Results, K. pneumoniae (increase in extracellular AK activity)
# [6] = 384-well format, cutoff for positive-scoring molecules 3-fold increase, read-out: AK-based Prestwick Library Screening Results, E. cloacae (increase in extracellular AK activity)
# [7] = 384-well format, cutoff for positive-scoring molecules 3-fold increase, read-out: AK-based Prestwick Library Screening Results, E. coli (increase in extracellular AK activity)
# [8] = 384-well format, cutoff for positive-scoring molecules 3-fold increase, read-out: AK-based Prestwick Library Screening Results, E. faecium (increase in extracellular AK activity)
# [9] = 384-well format, cutoff for positive-scoring molecules 3-fold increase, read-out: AK-based Prestwick Library Screening Results, P. aeruginosa (increase in extracellular AK activity)
# [10] = cutoff for positive-scoring molecules 3-fold increase
smiles,measurement,setting,value
Clc1ccc(C(Cn2ccnc2)OCc2csc3c(Cl)cccc23)c(Cl)c1 (stereo not shown) [Sertaconazole nitrate],fold induction at 50 µM,"[1]; cutoff for positive-scoring molecules 3-fold increase, read-out: AK-based Prestwick Library Screening Results, A. baumannii (fold increase in extracellular AK activity)",2.4
same,fold induction at 50 µM,"[2]; cutoff for positive-scoring molecules 3-fold increase, read-out: AK-based Prestwick Library Screening Results, S. aureus (fold increase in extracellular AK activity)",0.7
same,fold induction at 50 µM,"K. pneumoniae; cutoff for positive-scoring molecules 3-fold increase, read-out: AK-based Prestwick Library Screening Results, K. pneumoniae (fold increase in extracellular AK activity)",0.7
same,fold induction at 50 µM,"E. cloacae; cutoff for positive-scoring molecules 3-fold increase, read-out: AK-based Prestwick Library Screening Results, E. cloacae (fold increase in extracellular AK activity)",0.4
same,fold induction at 50 µM,"E. coli; cutoff for positive-scoring molecules 3-fold increase, read-out: AK-based Prestwick Library Screening Results, E. coli (fold increase in extracellular AK activity)",0.7
same,fold induction at 50 µM,"E. faecium; cutoff for positive-scoring molecules 3-fold increase, read-out: AK-based Prestwick Library Screening Results, E. faecium (fold increase in extracellular AK activity)",2.8
same,fold induction at 50 µM,"P. aeruginosa; cutoff for positive-scoring molecules 3-fold increase, read-out: AK-based Prestwick Library Screening Results, P. aeruginosa (fold increase in extracellular AK activity)",0.5
CN1[C@@H](CC(=O)c2ccccc2)CCC[C@H]1C[C@H](O)c1ccccc1.Cl [Lobeline alpha (−) hydrochoride],"AK-based Prestwick Library Screening Results, A. baumannii (increase in extracellular AK activity)","[1]; planktonic A. baumannii, […]",0.8
same,"AK-based Prestwick Library Screening Results, S. aureus (increase in extracellular AK activity)","[2]; planktonic S. aureus, […]",0.8
same,"AK-based Prestwick Library Screening Results, K. pneumoniae (increase in extracellular AK activity)","K. pneumoniae; planktonic K. pneumoniae, […]",0.7
same,"AK-based Prestwick Library Screening Results, E. cloacae (increase in extracellular AK activity)","E. cloacae; planktonic E. cloacae, […]",1.0
same,"AK-based Prestwick Library Screening Results, E. coli (increase in extracellular AK activity)","E. coli; planktonic E. coli, […]",1.0
same,"AK-based Prestwick Library Screening Results, E. faecium (increase in extracellular AK activity)","E. faecium; planktonic E. faecium, […]",0.9
same,"AK-based Prestwick Library Screening Results, P. aeruginosa (increase in extracellular AK activity)","P. aeruginosa; planktonic P. aeruginosa, […]",0.9
Nc1nc2ccc(OC(F)(F)F)cc2s1 [Riluzole hydrochloride],fold induction at 50 µM,[1]; [3],0.2
same,fold induction at 50 µM,[2]; [4],0.2
same,fold induction at 50 µM,K. pneumoniae; [5],0.2
same,fold induction at 50 µM,E. cloacae; [6],0.5
same,fold induction at 50 µM,E. coli; [7],0.2
same,fold induction at 50 µM,E. faecium; [8],0.3
same,fold induction at 50 µM,P. aeruginosa; [9],0.2
COc1ccccc1OCC(O)CO (stereo not shown) [Guaifenesin],fold induction at 50 µM,"[1]; […], read-out: AK-based Prestwick Library Screening Results, A. baumannii (fold increase in extracellular AK activity)",1
same,fold induction at 50 µM,"[2]; […], read-out: AK-based Prestwick Library Screening Results, S. aureus (fold increase in extracellular AK activity)",1.2
same,fold induction at 50 µM,"K. pneumoniae; […], read-out: AK-based Prestwick Library Screening Results, K. pneumoniae (fold increase in extracellular AK activity)",0.8
same,fold induction at 50 µM,"E. cloacae; […], read-out: AK-based Prestwick Library Screening Results, E. cloacae (fold increase in extracellular AK activity)",1.6
same,fold induction at 50 µM,"E. coli; […], read-out: AK-based Prestwick Library Screening Results, E. coli (fold increase in extracellular AK activity)",1.1
same,fold induction at 50 µM,"E. faecium; […], read-out: AK-based Prestwick Library Screening Results, E. faecium (fold increase in extracellular AK activity)",1
same,fold induction at 50 µM,"P. aeruginosa; […], read-out: AK-based Prestwick Library Screening Results, P. aeruginosa (fold increase in extracellular AK activity)",1.1
Clc1ccccc1C(c1ccccc1)(c1ccccc1)n1ccnc1 [Clotrimazole],fold induction at 50 µM,[1]; [3],3.3
same,fold induction at 50 µM,[2]; [4],2
same,fold induction at 50 µM,K. pneumoniae; [5],1
same,fold induction at 50 µM,E. cloacae; [6],1
same,fold induction at 50 µM,E. coli; [7],1
same,fold induction at 50 µM,E. faecium; [8],1.3
same,fold induction at 50 µM,P. aeruginosa; [9],1
NS(=O)(=O)c1cc2c(cc1C(F)(F)F)NCNS2(=O)=O [Hydroflumethiazide],fold induction at 50 µM,[1]; [3],0.7
same,fold induction at 50 µM,[2]; [4],0.5
same,fold induction at 50 µM,K. pneumoniae; [5],0.5
same,fold induction at 50 µM,E. cloacae; [6],0.7
same,fold induction at 50 µM,E. coli; [7],0.7
same,fold induction at 50 µM,E. faecium; [8],0.9
same,fold induction at 50 µM,P. aeruginosa; [9],0.5
CCN(CC)CCNC(=O)c1ccc(N)cc1 [Procainamide hydrochloride],fold induction at 50 µM,"[1]; planktonic A. baumannii, cutoff for positive-scoring molecules 3-fold increase, read-out: AK-based Prestwick Library Screening Results, A. baumannii (increase in extracellular AK activity)",0.7
same,fold induction at 50 µM,"[2]; planktonic S. aureus, cutoff for positive-scoring molecules 3-fold increase, read-out: AK-based Prestwick Library Screening Results, S. aureus (increase in extracellular AK activity)",0.6
same,fold induction at 50 µM,"K. pneumoniae; planktonic K. pneumoniae, cutoff for positive-scoring molecules 3-fold increase, read-out: AK-based Prestwick Library Screening Results, K. pneumoniae (increase in extracellular AK activity)",0.6
same,fold induction at 50 µM,"E. cloacae; planktonic E. cloacae, cutoff for positive-scoring molecules 3-fold increase, read-out: AK-based Prestwick Library Screening Results, E. cloacae (increase in extracellular AK activity)",0.9
same,fold induction at 50 µM,"E. coli; planktonic E. coli, cutoff for positive-scoring molecules 3-fold increase, read-out: AK-based Prestwick Library Screening Results, E. coli (increase in extracellular AK activity)",0.6
same,fold induction at 50 µM,"E. faecium; planktonic E. faecium, cutoff for positive-scoring molecules 3-fold increase, read-out: AK-based Prestwick Library Screening Results, E. faecium (increase in extracellular AK activity)",1
same,fold induction at 50 µM,"P. aeruginosa; planktonic P. aeruginosa, cutoff for positive-scoring molecules 3-fold increase, read-out: AK-based Prestwick Library Screening Results, P. aeruginosa (increase in extracellular AK activity)",0.6
CNCCC=C1c2ccccc2C=Cc2ccccc21 [Norcyclobenzaprine],"AK-based Prestwick Library Screening Results, A. baumannii (increase in extracellular AK activity)","[1]; planktonic A. baumannii, cutoff for positive-scoring molecules 3-fold increase",1.1
same,"AK-based Prestwick Library Screening Results, S. aureus (increase in extracellular AK activity)","[2]; planktonic S. aureus, cutoff for positive-scoring molecules 3-fold increase",0.6
same,"AK-based Prestwick Library Screening Results, K. pneumoniae (increase in extracellular AK activity)","K. pneumoniae; planktonic K. pneumoniae, cutoff for positive-scoring molecules 3-fold increase",0.9
same,"AK-based Prestwick Library Screening Results, E. cloacae (increase in extracellular AK activity)","E. cloacae; planktonic E. cloacae, cutoff for positive-scoring molecules 3-fold increase",1.3
same,"AK-based Prestwick Library Screening Results, E. coli (increase in extracellular AK activity)","E. coli; planktonic E. coli, cutoff for positive-scoring molecules 3-fold increase",6.3
same,"AK-based Prestwick Library Screening Results, E. faecium (increase in extracellular AK activity)","E. faecium; planktonic E. faecium, cutoff for positive-scoring molecules 3-fold increase",0.8
same,"AK-based Prestwick Library Screening Results, P. aeruginosa (increase in extracellular AK activity)","P. aeruginosa; planktonic P. aeruginosa, cutoff for positive-scoring molecules 3-fold increase",1.0
O=C(COc1ccc(Cl)cc1)N1CCN(Cc2ccc3c(c2)OCO3)CC1 [Fipexide hydrochloride],fold induction at 50 µM,"[1]; planktonic A. baumannii, 384-well, cutoff for positive-scoring molecules 3-fold increase, read-out: AK-based Prestwick Library Screening Results: A. baumannii (increase in extracellular AK activity)",1
same,fold induction at 50 µM,"[2]; planktonic S. aureus, 384-well, cutoff for positive-scoring molecules 3-fold increase, read-out: AK-based Prestwick Library Screening Results: S. aureus (increase in extracellular AK activity)",0.9
same,fold induction at 50 µM,"K. pneumoniae; planktonic K. pneumoniae, 384-well, cutoff for positive-scoring molecules 3-fold increase, read-out: AK-based Prestwick Library Screening Results: K. pneumoniae (increase in extracellular AK activity)",1.1
same,fold induction at 50 µM,"E. cloacae; planktonic E. cloacae, 384-well, cutoff for positive-scoring molecules 3-fold increase, read-out: AK-based Prestwick Library Screening Results: E. cloacae (increase in extracellular AK activity)",1.3
same,fold induction at 50 µM,"E. coli; planktonic E. coli, 384-well, cutoff for positive-scoring molecules 3-fold increase, read-out: AK-based Prestwick Library Screening Results: E. coli (increase in extracellular AK activity)",1.3
same,fold induction at 50 µM,"E. faecium; planktonic E. faecium, 384-well, cutoff for positive-scoring molecules 3-fold increase, read-out: AK-based Prestwick Library Screening Results: E. faecium (increase in extracellular AK activity)",1.1
same,fold induction at 50 µM,"P. aeruginosa; planktonic P. aeruginosa, 384-well, cutoff for positive-scoring molecules 3-fold increase, read-out: AK-based Prestwick Library Screening Results: P. aeruginosa (increase in extracellular AK activity)",1
C#C[C@]1(O)CC[C@H]2[C@@H]3CCC4=CC(=O)CC[C@@H]4[C@H]3CC[C@@]21CC [Norgestrel-(−)-D],"AK-based Prestwick Library Screening Results, A. baumannii (fold increase in extracellular AK activity)",[1]; [10],1.1
same,"AK-based Prestwick Library Screening Results, S. aureus (fold increase in extracellular AK activity)",[2]; [10],1.1
same,"AK-based Prestwick Library Screening Results, K. pneumoniae (fold increase in extracellular AK activity)",K. pneumoniae; [10],1.1
same,"AK-based Prestwick Library Screening Results, E. cloacae (fold increase in extracellular AK activity)",E. cloacae; [10],1.7
same,"AK-based Prestwick Library Screening Results, E. coli (fold increase in extracellular AK activity)",E. coli; [10],1.0
same,"AK-based Prestwick Library Screening Results, E. faecium (fold increase in extracellular AK activity)",E. faecium; [10],1.0
same,"AK-based Prestwick Library Screening Results, P. aeruginosa (fold increase in extracellular AK activity)",P. aeruginosa; [10],1.1
